From PubChem BioAssay AID328 (DTP/NCI, 2004) come the findings set out here.

Where “and” joins values, the source holds several entries; their conditions need not be identical. Identical values can stand only once. Toxic doses and inconclusive results are not listed.

In this experiment the test system is BDF1 mice, P388 leukemia ip, median survival T/C. In words: NCI In Vivo Anticancer Drug Screen. Data for tumor model P388 Leukemia (intraperitoneal) in B6D2F1 (BDF1) mice. The settings on record: endpoint: median survival time, higher = longer survival. The gist of the method: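 T/C = treated-group survival ÷ vehicle-control survival; tumour transplanted into mice before dosing.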

Setting [1] is: dose: 25.0 mg/kg/injection, schedule: Q01DX009 (ip), vehicle: Klucel (hydroxypropylcellulose) (HPC).
Where [2] appears, read: dose: 50.0 mg/kg/injection, schedule: Q01DX009 (ip), vehicle: Klucel (hydroxypropylcellulose) (HPC).
Setting [3] is: dose: 100.0 mg/kg/injection, schedule: Q01DX009 (ip), vehicle: Klucel (hydroxypropylcellulose) (HPC).
[4] abbreviates: dose: 37.5 mg/kg/injection, schedule: Q01DX009 (ip), vehicle: Klucel (hydroxypropylcellulose) (HPC).
Setting [5] is: dose: 100.0 mg/kg/injection, schedule: Q04DX003 (ip), vehicle: saline with Tween-80.
Where [6] appears, read: dose: 400.0 mg/kg/injection, schedule: Q04DX003 (ip), vehicle: saline with Tween-80.
Where [7] appears, read: dose: 50.0 mg/kg/injection, schedule: Q01DX009 (ip), vehicle: saline with Tween-80.
[8] abbreviates: dose: 100.0 mg/kg/injection, schedule: Q01DX009 (ip), vehicle: saline with Tween-80.
Where [9] appears, read: dose: 200.0 mg/kg/injection, schedule: Q01DX009 (ip), vehicle: saline with Tween-80.
The mark [10] stands for this setting: dose: 100.0 mg/kg/injection, schedule: Q04DX003 (ip), vehicle: saline sonified.
Where [11] appears, read: dose: 400.0 mg/kg/injection, schedule: Q04DX003 (ip), vehicle: saline sonified.
Setting [12] is: dose: 50.0 mg/kg/injection, schedule: Q04DX003 (ip), vehicle: saline with Tween-80.
Where [13] appears, read: dose: 50.0 mg/kg/injection, schedule: Q04DX003 (ip), vehicle: saline.
Where [14] appears, read: dose: 100.0 mg/kg/injection, schedule: Q04DX003 (ip), vehicle: saline.

`Cc1cc(=O)[nH]c(N/N=C/C(C)C)n1`: the T/C under setting [1] is 92 % of control; the T/C under setting [2] was 92 % of control; the T/C (dose: 50.0 mg/kg/injection, schedule: Q04DX003 (ip), vehicle: Klucel (hydroxypropylcellulose) (HPC)) is 96 % of control; the T/C under setting [3] is 100 % of control; the T/C (dose: 100.0 mg/kg/injection, schedule: Q04DX003 (ip), vehicle: Klucel (hydroxypropylcellulose) (HPC)) is 88 % of control; the T/C (dose: 200.0 mg/kg/injection, schedule: Q04DX003 (ip), vehicle: Klucel (hydroxypropylcellulose) (HPC)) was 88 % of control.
For the compound `O=C1OCC2CC3c4ccccc4C12c1ccccc13` (stereo unspecified), the T/C was 105 % of control (dose: 200.0 mg/kg/injection, schedule: Q01DX001 (ip), vehicle: Klucel (hydroxypropylcellulose) (HPC)) and 95 % of control (dose: 400.0 mg/kg/injection, schedule: Q01DX001 (ip), vehicle: Klucel (hydroxypropylcellulose) (HPC)).
Consider `CCCCCC/C=C/C#CCCCCCCCC(=O)O`, for which the T/C by setting is: under setting [4], 106 % of control; (dose: 75.0 mg/kg/injection, schedule: Q01DX009 (ip), vehicle: Klucel (hydroxypropylcellulose) (HPC)) 100 % of control; (dose: 150.0 mg/kg/injection, schedule: Q01DX009 (ip), vehicle: Klucel (hydroxypropylcellulose) (HPC)) 109 % of control.
`c1ccc(C/C(N=Nc2ccccc2)=N\Nc2ccccc2)cc1`: the T/C is, setting by setting: under setting [2], 110 % of control; under setting [3], 110 % of control; (dose: 200.0 mg/kg/injection, schedule: Q01DX009 (ip), vehicle: Klucel (hydroxypropylcellulose) (HPC)) 100 % of control.
In the case of `COc1ccc(/C=C2\CCCC3=C2N=C2SCC(=O)N2C3c2ccc(OC)cc2)cc1` (stereo unspecified), the T/C under setting [5] was 90 % of control and the T/C under setting [6] was 90 % of control.
For the compound `Cc1cccc(NC2=C(C#N)C(=O)NC3(CCCC3)S2)c1`, the T/C by setting is: under setting [7], 119 % of control; under setting [8], 103 % of control; under setting [9], 100 % of control.
On to `CCCCCCCCC(=O)c1c(OC)oc(C=O)cc1=O`, for which the T/C was 96 % of control (dose: 2.34 mg/kg/injection, schedule: Q01DX009 (ip), vehicle: Klucel (hydroxypropylcellulose) (HPC)); 112 % of control and 118 % of control (dose: 4.69 mg/kg/injection, schedule: Q01DX009 (ip), vehicle: Klucel (hydroxypropylcellulose) (HPC)); 104 % of control and 108 % of control (dose: 9.38 mg/kg/injection, schedule: Q01DX009 (ip), vehicle: Klucel (hydroxypropylcellulose) (HPC)); 105 % of control (dose: 18.7 mg/kg/injection, schedule: Q01DX009 (ip), vehicle: Klucel (hydroxypropylcellulose) (HPC)); 96 % of control (dose: 18.75 mg/kg/injection, schedule: Q01DX009 (ip), vehicle: Klucel (hydroxypropylcellulose) (HPC)); 93 % of control and 114 % of control and 121 % of control under setting [4].
Turning to `CCC1=C(C)C(=O)C2CCCCC2C1=O` (stereo unspecified), the T/C was 100 % of control under setting [10]; 100 % of control (dose: 200.0 mg/kg/injection, schedule: Q04DX003 (ip), vehicle: saline sonified); 100 % of control under setting [11].
As to `COc1ccc2c(Nc3ccc(NS(C)(=O)=O)cc3)c3ccccc3nc2c1`, the T/C was 169 % of control (dose: 0.66 mg/kg/injection, schedule: Q01DX009 (ip), vehicle: saline with Tween-80); 194 % of control (dose: 1.0 mg/kg/injection, schedule: Q01DX009 (ip), vehicle: saline with Tween-80); 201 % of control (dose: 1.5 mg/kg/injection, schedule: Q01DX009 (ip), vehicle: saline with Tween-80); 150 % of control (dose: 2.66 mg/kg/injection, schedule: Q04DX003 (ip), vehicle: saline with Tween-80); 163 % of control (dose: 4.0 mg/kg/injection, schedule: Q04DX003 (ip), vehicle: saline with Tween-80); 172 % of control (dose: 6.0 mg/kg/injection, schedule: Q04DX003 (ip), vehicle: saline with Tween-80). Moreover, the T/C (dose: 9.0 mg/kg/injection, schedule: Q04DX003 (ip), vehicle: saline with Tween-80) is 168 % of control; the T/C (dose: 22.0 mg/kg/injection, schedule: Q04DX003 (ip), vehicle: saline with Tween-80) is 200 % of control; the T/C (dose: 25.0 mg/kg/injection, schedule: Q04DX003 (ip), vehicle: saline) is 254 % of control; the T/C (dose: 33.0 mg/kg/injection, schedule: Q04DX003 (ip), vehicle: saline with Tween-80) is 227 % of control; the T/C under setting [12] is 231 % of control; the T/C under setting [13] was 240 % of control. Also, the T/C was 281 % of control (dose: 75.0 mg/kg/injection, schedule: Q04DX003 (ip), vehicle: saline with Tween-80) and 104 % of control under setting [14].
`CN(C)P(N)(=S)N(C)C`: the T/C under setting [7] is 96 % of control, the T/C under setting [8] was 91 % of control and the T/C under setting [9] was 96 % of control.
In the case of `CSP12(OCCO1)OCCO2`, the T/C by setting is: (dose: 50.0 mg/kg/injection, schedule: Q01DX005 (ip), vehicle: saline) 94 % of control; (dose: 100.0 mg/kg/injection, schedule: Q01DX005 (ip), vehicle: saline) 94 % of control; (dose: 200.0 mg/kg/injection, schedule: Q01DX005 (ip), vehicle: saline) 91 % of control.
For the compound `[Cl][Pb]([Cl])([c]1ccccc1)[c]1ccccc1`, the T/C by setting is: (dose: 25.0 mg/kg/injection, schedule: Q01DX009 (ip), vehicle: saline with Tween-80) 91 % of control; under setting [7], 87 % of control; under setting [8], 97 % of control.
`O=C(CBr)OCCCS(=O)(=O)O`: the T/C is, setting by setting: under setting [13], 95 % of control; under setting [14], 104 % of control; (dose: 200.0 mg/kg/injection, schedule: Q04DX003 (ip), vehicle: saline) 100 % of control.
`COCCn1c2c(nc(C(=O)OC)/c1=N\C(=O)Nc1ccccc1)CCCC2`: the T/C under setting [7] was 109 % of control, the T/C under setting [8] was 106 % of control and the T/C under setting [9] is 106 % of control.
With `O=C(O)C1C(C(=O)O)C2(Cl)C(Cl)=C(Cl)C1(Cl)C2(Cl)Cl.[Co]` (stereo unspecified), the T/C is, setting by setting: under setting [1], 100 % of control; under setting [2], 100 % of control.
Regarding `CN(C)C(=S)N=Nc1c(O)[nH]c2ccccc12`, the T/C reads like this: (dose: 1.56 mg/kg/injection, schedule: Q01DX009 (ip), vehicle: saline with Tween-80) 109 % of control; (dose: 3.13 mg/kg/injection, schedule: Q01DX009 (ip), vehicle: saline with Tween-80) 100 % of control; (dose: 6.25 mg/kg/injection, schedule: Q01DX009 (ip), vehicle: saline with Tween-80) 100 % of control; (dose: 12.5 mg/kg/injection, schedule: Q01DX009 (ip), vehicle: saline with Tween-80) 92 % of control; (dose: 25.0 mg/kg/injection, schedule: Q04DX003 (ip), vehicle: saline with Tween-80) 105 % of control; under setting [12], 100 % of control. Further, the T/C by setting is: under setting [10], 90 % of control; under setting [5], 100 % of control; under setting [11], 90 % of control.
As to `CCCCCCCC(=O)Nc1ccc(C)c(C)c1`, the T/C was 109 % of control under setting [5]; 109 % of control (dose: 200.0 mg/kg/injection, schedule: Q04DX003 (ip), vehicle: saline with Tween-80); 109 % of control under setting [6].
Take `C[N+](C)(C)Cc1ccccc1/C(=N\O)c1ccccc1`: the T/C by setting is: (dose: 5.0 mg/kg/injection, schedule: Q01DX009 (ip), vehicle: saline) 109 % of control; (dose: 10.0 mg/kg/injection, schedule: Q01DX009 (ip), vehicle: saline) 91 % of control.
Regarding `Oc1ccc(Nc2ccccc2)cc1`, the T/C runs as follows: (dose: 100.0 mg/kg/injection, schedule: Q01DX001 (ip), vehicle: saline) 95 % of control; (dose: 200.0 mg/kg/injection, schedule: Q01DX001 (ip), vehicle: saline) 100 % of control; (dose: 400.0 mg/kg/injection, schedule: Q01DX001 (ip), vehicle: saline) 100 % of control.
